The conditions of data set [1]: 25° C., for reference purposes; cited from earlier work.
Data set [2] in a line: Physical properties at freezing temperatures and on thawing (Example 3). It counts as physicochemical. As to the method:
The following samples were tested to observe their physical properties at freezing temperatures:
After blending, such as by the method above, for example, all samples were allowed to cool to room temperature (20° C.). All samples stayed liquid at room temperature, except for blend 5.
All samples were placed in a freezer overnight ([…]).
All samples were placed back in the same freezer at the same temperature for an additional 2 days. In the BCP sample, there was-no change.
All samples were left at room temperature to thaw overnight.

The nature of data set [3]: Brookfield viscosity, SC4-18 spindle, 100 rpm. It counts as physicochemical. As for the experimental part: The procedure used a Brookfield viscometer.
The apparatus used was a Brookfield viscometer, Programmable DV-II+Viscometer and a SC4-18 spindle.
The samples were tested at 100 rpm and at a range of temperatures, as shown in Table 4—Viscosity Measurement Results below.
All measurements were made in centipoise. For reference purposes, the viscosity of water, at 25° C. is 0.89 centipoise, and the viscosity of ethylene glycol at 25° C. is about 16 centipoise.

SMILES strings stand for the structures.

Consider `O` [water], for which, in data set [1], the “viscosity (reference)” value is reported as 0.89 centipoise.

For the compound `Oc1ccc(Cl)cc1Cc1ccccc1` [BCP, o-benzyl p-chlorophenol], in data set [2] (freezer overnight (23° C.)), the “physical state after overnight freezing” value is recorded as “frozen solid”. The “physical state after extended freezing” value in data set [2] (same freezer, same temperature, additional 2 days) is recorded as “no change”. Moreover, the values for the viscosity entry in data set [3] (10 ° C.) and in data set [3] (40 ° C.) were “Crystalline” and 29.4 centipoise, respectively.

For the compound `OCCO` [ethylene glycol], the “viscosity (reference)” value in data set [1] was “about 16 centipoise”.

The values above are taken from patent publication US20070292465A1, “Eutectic biocide compositions and formulations” (Clariant International, Ltd., priority 2006, published 2007).
